Assay results published in patent US8455495B2, “Pyridazino-pyridinone compounds and methods of use” (Amgen Inc., priority 2008, dated 2013).
Where two headings read alike, the source gives them in different places.

Key:
[1] = target: recombinant human p38α (Homo sapiens, UniProt Q16539); assay: Purified and activated recombinant human p38α HTRF assay; format: biochemical; conditions: 1 nM p38α, 50 μM ATP, GST-ATF2 substrate, read-out: p38a IC50
Method: Purified and Activated Recombinant Human p38α Assay Kinase Reaction Buffer: […] HTRF Detection Buffer: […] Serial Dilution of Compounds: […] Columns 6 and 12 (HI controls and LO controls respectively) in the drug plate were reserved as controls and contained only DMSO. Kinase Reaction: […] See table below for actual concentrations. In the absence of substrate, the background was measured as LO control. […] Assay Reagent Concentrations: […] HTRF Detection: […] After 60 minutes incubation at room temperature, the assay plate was read in a Discovery Plate Reader. The wells were excited with coherent 320 nm light and the ratio of delayed ([…] post excitation) emissions at […] (native europium fluorescence) and 665 nm (europium fluorescence transferred to allophycocyanin-an index of substrate phosphorylation) was determined (Park et al, 1999). Data Analysis: […] Data (consisting of POC and inhibitor concentration in μM) was fitted to a 4-parameter equation ([…]))), where A is the minimum y (POC) value, B is the maximum y (POC), C is the x (compound concentration) at the point of inflection and D is the slope factor, using a Levenburg-Marquardt non-linear regression algorithm. The inhibition constant (Ki) of the inhibitor was estimated from the IC50 (compound concentration at the point of inflection C) using the Cheng-Prussof equation: […] All results were expressed as the mean±the standard error of the mean. Data acquisition and non-linear regression algorithms were performed using Activity Base v5.2 and XL-fit software v4.1 respectively. All data was archived using Activity Base v5.2 software.

[2] = test system: TNF-α induced IL-8 in 50% human whole blood; assay: Inhibition of TNF-α induced IL-8 in 50% human whole blood; format: cell-based
Method: Inhibition of TNF-α Induced IL-8 in 50% Human Whole Blood
Test compounds were evaluated in vitro for the ability to inhibit the production of secreted IL-8 by whole blood activated with TNF-α. Fresh human whole blood was obtained from healthy, non-medicated volunteers in sodium heparin tubes.
Compound Dilution—Assay Procedure
Test compounds are serially diluted 1:3 in DMSO and then diluted 1:250 into R10 (RPMI 1640, 10% human serum AB, 1× pen/strep/glutamine) to the 4× working concentration to be used in the assay. 100 ul heparinized whole blood is plated into wells of 96 well flat bottom plates. 50 ul of either 4× compound or DMSO control (Final DMSO concentration is 0.1%) are added to the appropriate wells. Plates are incubated for 1 hour at 37 degrees Celsius. 50 ul of 4×TNF-α (4 nM TNF-α, for a final concentration of 1 nM) or control (media alone) is added to the appropriate wells (Total volume=200 ul). Plates are incubated overnight (16-18 hours). 100 ul of supernatant is collected and stored in 96-well round bottom polypropylene plates at −80 degrees Celsius or assayed immediately for IL-8.
Cytokines are measured on antibody (Ab) sandwich ECL based 96-well detection plates. 20 ul of supernatant are added to plate and plate is sealed and shaken at RT for 1 hour. 130 ul of detection Ab cocktail is added and plates are sealed and shaken for 1 hour in the dark at RT. Plates are read on MSD Sector HTS instrument. Data are analyzed and IC50 values generated using Activity Base and X1-fit programs.

[3] = test system: production of IL-1β, IL-6, and TNF-α by PBMC activated with LPS; assay: Lipopolysaccharide-activated PBMC cytokine production assay; format: cell-based; conditions: Homo sapiens, read-out: IC50 in PBMC cytokine production assay
Method: Lipopolysaccharide-Activated Pbmc Cytokine Production Assay
Test compounds were evaluated in vitro for the ability to inhibit the production of IL-1β, IL-6, and TNF-α by PBMC activated with bacterial lipopolysaccharide (LPS). Fresh leukocytes were obtained from a local blood bank, and peripheral blood mononuclear cells (PBMCs) were isolated by density gradient centrifugation on Ficol-Paque Plus (Pharmacia).
Preparation of Test Compound Stock Solutions
All reagents were prepared in RPMI 1640+10% v/v human AB serum+1× Pens/Strep/Glu (assay medium). Test compounds were dissolved in 100% DMSO and serially diluted in 96-well polypropylene round bottom micro titer plates (drug plate). Serial dilutions were then diluted 1:250 into assay medium to a 4× working concentration. Compound serial dilutions were half-log, 10 point titrations with a final starting concentration of 1 μM.
Treatment of Cells with Test Compounds and Activation with Lipopolysaccharide
LPS was prepared to a 4× concentration in assay medium. 100 μl of PBMC (1×10^6 cells/ml) were plated in a 96-well polystyrene flat bottom micro titer tissue culture plate and incubated with 50 μl of 4× compound serial dilution for 1 hour at 37° C., 5% CO2 in a tissue culture incubator. 50 μl 4×LPS or control was added and the plates were incubated at 37° C., 5% CO2 in a tissue culture incubator for 18 hours. The final DMSO concentration was 0.1%. The total volume was 200 μL. The final LPS concentration was 100 ng/mL. After 18 hours culture supernatants were removed and IL-1β, IL-6, and TNF-α presence in the supernatants was quantified using MSD ECL based technology.
20 μL of culture supernatant were added to MSD plates, and incubated for one hour at room temperature. 20 μL of detection antibody diluted in antibody diluent (1 μg/mL), and 110 μL of 2× Read Buffer P was added, and incubated for one hour at RT. Electrochemiluminescence was measured using the SECTOR HTS Imager (MSD, Gaithersburg, Md.).
Compound IC50 values were calculated as follows: The proportion of cytokine production in the presence of compound compared to the cytokine production in the presence of the DMSO vehicle alone (Hi control) was calculated using the formula: Percent Control (POC)=(compound−average Lo)/(average Hi−average Lo)*100.

[4] = test system: TNF-α production by LPS-activated THP1 cells; assay: Lipopolysaccharide-activated THP1 cell TNF production assay; format: cell-based; conditions: Homo sapiens, read-out: IC50 in THP-1 cellular TNF production assay
Method: Lipopolysaccharide-Activated THP1 Cell TNF Production Assay
THP1 cells were resuspended in fresh THP1 media (RPMI 1640, 10% heat-inactivated FBS, 1×PGS, 1×NEAA, plus 30 μM βME) at a concentration of 1.5×10^6 cells per mL. One hundred microliters of cells per well were plated in a polystyrene 96-well tissue culture plate. 1.5 micrograms per mL of bacterial LPS was prepared in THP1 media and transferred to the first 11 columns of a 96-well polypropylene plate. Column 12 contained only THP1 media for the LO control. Compounds were dissolved in 100% DMSO and serially diluted 3 fold in a polypropylene 96-well microtiter plate (drug plate). Columns 6 and 12 were reserved as controls (HI controls and LO controls respectively) and contained only DMSO. 10 μL of LPS followed by one microliter of inhibitor compound from the drug plate was transferred to the cell plate. The treated cells were induced to synthesize and secrete TNF-α in a 37° C. humidified incubator with 5% CO2 for 3 hours. Fifty microliters of conditioned media was transferred to a 96-well MULTI-ARRAY™ 96-well small spot plate—custom coated with MAB610 containing 100 μL of 2× Read Buffer P supplemented with 0.34 nM AF210NA polyclonal Ab labeled with ruthenium (MSD—Sulfo-TAG™—NHS ester). After an overnight incubation at room temperature with shaking, the reaction was read on the Sector Imager™ 6000. […] The amount of secreted TNF-α in the presence of test compounds compared with that in the presence of DMSO vehicle alone (HI control) was calculated using the formula: % control (POC)=(cpd−average LO)/(average HI−averageLO)*100. Data (consisting of POC and inhibitor concentration in μM) was fitted to a 4-parameter equation (y=A+((B−A)/(1+((x/C)^D))), where A is the minimum y (POC) value, B is the maximum y (POC), C is the x (cpd concentration) at the point of inflection and D is the slope factor) using a Levenburg-Marquardt non-linear regression algorithm.

[5] = TNF-α (1 nM) induced IL-8, 50% human whole blood, 16-18 h, read-out: WB TNF/IL8 IC50
[6] = THP-1, THP1 cells, LPS, 3 hours

Sequence of recombinant human p38α (Q16539 whole entry): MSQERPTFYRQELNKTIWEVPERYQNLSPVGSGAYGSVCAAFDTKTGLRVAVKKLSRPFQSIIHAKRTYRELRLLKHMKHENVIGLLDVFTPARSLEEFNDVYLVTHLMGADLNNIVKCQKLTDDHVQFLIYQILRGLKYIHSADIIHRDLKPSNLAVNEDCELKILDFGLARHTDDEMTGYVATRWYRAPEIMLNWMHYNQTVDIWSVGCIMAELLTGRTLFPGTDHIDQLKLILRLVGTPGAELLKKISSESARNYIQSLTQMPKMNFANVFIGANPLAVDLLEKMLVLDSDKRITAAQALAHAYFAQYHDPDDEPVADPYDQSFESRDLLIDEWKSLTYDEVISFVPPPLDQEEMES

Row | IC50 [1] | IC50 [2, 5] | IC50 [4, 6] | Structure (SMILES) | IC50 ([3]; LPS 100 ng/mL, 18 hours) | IC50 ([3]; 18 h) | IC50 ([4]; THP-1, 3 h) | IC50 ([2]; read-out: WB TNF/IL8 IC50, TNF-α (1 nM) induced IL-8, 50% human whole blood, 16-18 h)
1 | 2.5 nM | 3.9 nM |  | Cc1cc(S(C)(=O)=O)ccc1-c1nncc2cc(-c3cc(C(=O)NC4CC4)cc(F)c3C)c(=O)n(C)c12 [Example 27, N-cyclopropyl-3-fluoro-4-methyl-5-(1-methyl-8-(2-methyl-4-(methylsulfonyl)phenyl)-2-oxo-1,2-dihydropyrido[2,3-d]pyridazin-3-yl)benzamide] |  |  |  | 
2 |  | 1.7 nM |  | Cc1ccc(C(=O)Nc2ccon2)cc1-c1cc2cnnc(-c3ccc(F)cc3F)c2n(C)c1=O [Example 33, 3-(8-(2,4-difluorophenyl)-1-methyl-2-oxo-1,2-dihydropyrido[2,3-d]pyridazin-3-yl)-N-3-isoxazolyl-4-methylbenzamide] |  |  |  | 
3 | 1 nM | 1 nM |  | CCn1c(=O)c(-c2cc(C(=O)NC3CC3)ccc2C)cc2cnnc(-c3ccccc3Cl)c21 [Example 28, 3-(8-(2-chlorophenyl)-1-ethyl-2-oxo-1,2-dihydropyrido[2,3-d]pyridazin-3-yl)-N-cyclopropyl-4-methylbenzamide] |  |  |  | 
4 | 1.8 nM |  | ≤ 1000 nM | Cc1c(F)cc(C(=O)NC2CC2)cc1-c1cc2cnnc(-c3ccc(F)cc3Cl)c2n(C)c1=O [Example 17, 3-(8-(2-chloro-4-fluorophenyl)-1-methyl-2-oxo-1,2-dihydropyrido[2,3-d]pyridazin-3-yl)-N-cyclopropyl-5-fluoro-4-methylbenzamide] | ≤ 1000 nM |  |  | 

Second part, the molecule before the results:

Row | Structure (SMILES) | IC50 [1] | IC50 [2, 5] | IC50 [4, 6] | IC50 ([3]; LPS 100 ng/mL, 18 hours) | IC50 ([3]; 18 h) | IC50 ([4]; THP-1, 3 h) | IC50 ([2]; read-out: WB TNF/IL8 IC50, TNF-α (1 nM) induced IL-8, 50% human whole blood, 16-18 h)
5 | Cc1ccc(C(=O)NC2CC2)cc1-c1cc2cnnc(-c3ccc(S(C)(=O)=O)cc3C)c2n(C)c1=O [Example 26, N-cyclopropyl-4-methyl-3-(1-methyl-8-(2-methyl-4-(methylsulfonyl)phenyl)-2-oxo-1,2-dihydropyrido[2,3-d]pyridazin-3-yl)benzamide] | 3.3 nM | 10 nM |  |  |  |  | 
6 | Cc1ccc(C(=O)Nc2nccs2)cc1-c1cc2cnnc(-c3ccc(F)cc3F)c2n(C)c1=O [Example 32, 3-(8-(2,4-difluorophenyl)-1-methyl-2-oxo-1,2-dihydropyrido[2,3-d]pyridazin-3-yl)-4-methyl-N-1,3-thiazol-2-ylbenzamide] | 1.2 nM | 7.3 nM |  |  |  |  | 
7 | Cc1ccc(C(=O)NC2(C)CC2)cc1-c1cc2cnnc(-c3ccc(F)cc3Cl)c2n(C)c1=O [Example 20, 3-(8-(2-chloro-4-fluorophenyl)-1-methyl-2-oxo-1,2-dihydropyrido[2,3-d]pyridazin-3-yl)-4-methyl-N-(1-methylcyclopropyl)benzamide] | 4.1 nM | 15.6 nM | ≤ 1000 nM | ≤ 1000 nM |  |  | 
8 | CNC(=O)c1ccc(C)c(-c2cc3cnnc(-c4ccc(F)cc4F)c3n(C)c2=O)c1 [Example 31, 3-(8-(2,4-difluorophenyl)-1-methyl-2-oxo-1,2-dihydropyrido[2,3-d]pyridazin-3-yl)-N,4-dimethylbenzamide] | 2.7 nM | 30 nM |  |  |  |  | 
9 | Cc1ccc(C(=O)Nc2nccs2)cc1-c1cc2cnnc(-c3ccc(F)cc3Cl)c2n(C)c1=O [Example 24, 3-(8-(2-chloro-4-fluorophenyl)-1-methyl-2-oxo-1,2-dihydropyrido[2,3-d]pyridazin-3-yl)-4-methyl-N-1,3-thiazol-2-ylbenzamide] | 1 nM | 9.3 nM | ≤ 1000 nM | ≤ 1000 nM |  |  | 
10 | Cc1ccc(C(=O)Nc2ccnn2C)cc1-c1cc2cnnc(-c3ccc(F)cc3F)c2n(C)c1=O [Example 15, 3-(8-(2,4-difluorophenyl)-1-methyl-2-oxo-1,2-dihydropyrido[2,3-d]pyridazin-3-yl)-4-methyl-N-(1-methyl-1H-pyrazol-5-yl)benzamide] | 7.5 nM | 4.1 nM | ≤ 1000 nM | ≤ 1000 nM |  |  | 
11 | Cc1ccc(C(N)=O)cc1-c1cc2cnnc(-c3ccc(F)cc3F)c2n(C)c1=O [Example 2, 3-(8-(2,4-difluorophenyl)-1-methyl-2-oxo-1,2-dihydropyrido[3,2-d]pyridazin-3-yl)-4-methylbenzamide] | 3 nM |  |  |  | ≤ 1000 nM | ≤ 1000 nM | 
12 | Cn1c(=O)c(-c2cc(C(=O)O)ccc2Cl)cc2cnnc(-c3ccc(F)cc3F)c21 [Example 4, 4-chloro-3-(8-(2,4-difluorophenyl)-1-methyl-2-oxo-1,2-dihydropyrido[3,2-d]pyridazin-3-yl)benzoic acid] | > 1000 nM |  |  |  |  |  | > 2500 nM
13 | Cc1cnc(C(=O)NC2CC2)cc1-c1cc2cnnc(-c3ccc(F)cc3F)c2n(C)c1=O [Example 30, N-cyclopropyl-4-(8-(2,4-difluorophenyl)-1-methyl-2-oxo-1,2-dihydropyrido[2,3-d]pyridazin-3-yl)-5-methyl-2-pyridinecarboxamide] | 14 nM | 38 nM |  |  |  |  | 
